Data as given in EP0698614A1, “Endothelin-antagonizing peptide” (KYOWA HAKKO KOGYO CO., LTD., priority 1994, dated 1996).
Read-outs that look alike come from different tables or passages of the source.

Tests used:
endothelin receptor [1] = biological target: T1, endothelin receptor (Bos taurus, UniProt P28088); experiment: Endothelin receptor binding inhibition (125I-endothelin-1), bovine cerebellum membrane fraction (Test Example 1); conditions: read-out: IC₅₀
T1 construct: the suspension was used as a membrane fraction liquid; from tissue; host or cells: bovine cerebellum membrane fraction
T1 sequence (P28088 27-441): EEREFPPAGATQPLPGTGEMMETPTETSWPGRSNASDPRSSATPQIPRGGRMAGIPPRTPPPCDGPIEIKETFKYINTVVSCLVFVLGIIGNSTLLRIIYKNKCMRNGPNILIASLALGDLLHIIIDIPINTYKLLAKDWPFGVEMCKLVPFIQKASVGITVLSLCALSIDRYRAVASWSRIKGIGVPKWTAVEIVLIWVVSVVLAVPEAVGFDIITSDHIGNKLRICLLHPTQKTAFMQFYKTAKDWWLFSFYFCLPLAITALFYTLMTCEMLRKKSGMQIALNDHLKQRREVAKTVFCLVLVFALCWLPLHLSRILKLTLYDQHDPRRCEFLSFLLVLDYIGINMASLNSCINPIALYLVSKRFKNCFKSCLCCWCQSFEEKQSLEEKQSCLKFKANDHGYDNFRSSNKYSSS
Protocol: (§1) The resulting solid substance was prepared as a suspension containing 2 mg/ml of protein, and the suspension was used as a membrane fraction liquid. […]

endothelin receptor [2] = biological target: T2, endothelin receptor (Bos taurus, UniProt P21450); experiment: Endothelin receptor binding inhibition (125I-endothelin-1), bovine lung membrane fraction with RES-701-1 added (Test Example 2); conditions: read-out: IC₅₀
T2 construct: from tissue
T2 sequence (P21450 21-427): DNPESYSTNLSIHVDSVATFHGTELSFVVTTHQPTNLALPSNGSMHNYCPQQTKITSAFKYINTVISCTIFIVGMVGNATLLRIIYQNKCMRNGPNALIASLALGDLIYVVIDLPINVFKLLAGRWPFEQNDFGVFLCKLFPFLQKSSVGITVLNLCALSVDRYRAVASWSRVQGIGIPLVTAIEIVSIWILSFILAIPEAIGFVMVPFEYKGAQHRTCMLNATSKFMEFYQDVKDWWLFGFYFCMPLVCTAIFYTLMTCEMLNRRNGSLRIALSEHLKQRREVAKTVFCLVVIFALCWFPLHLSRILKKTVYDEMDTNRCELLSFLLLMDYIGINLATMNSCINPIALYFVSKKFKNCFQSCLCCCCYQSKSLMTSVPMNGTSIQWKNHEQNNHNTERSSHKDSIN
Protocol: as §1

Compound	IC50 (endothelin receptor [1]; Concentration causing 50 % inhibition of endothelin-1 binding, bovine cerebellum tissue membrane fraction, 25°C for 2 hours) [nM]	IC50 (endothelin receptor [2]; Concentration causing 50 % inhibition of endothelin-1 binding, bovine lung tissue membrane fraction, RES-701-1 added at […]) [nM]	IC50 (endothelin receptor [1]) [nM]	IC50 (endothelin receptor [2]) [nM]
COC(=O)[C@H](Cc1c[nH]c2ccccc12)NC(=O)[C@H](Cc1ccc(O)cc1)NC(=O)[C@H](Cc1ccc(O)cc1)NC(=O)[C@H](CC(N)=O)NC(=O)[C@H](Cc1ccccc1)NC(=O)[C@H](Cc1ccccc1)NC(=O)[C@H](Cc1c[nH]c2ccccc12)NC(=O)[C@@H]1CC(=O)NCC(=O)N[C@@H](CC(N)=O)C(=O)N[C@@H](Cc2c[nH]c3ccccc23)C(=O)N[C@@H](Cc2c[nH]cn2)C(=O)NCC(=O)N[C@@H]([C@@H](C)O)C(=O)N[C@@H](C)C(=O)N2CCC[C@H]2C(=O)N1 [(I-1)]	[…]	58	–	–
C[C@@H]1NC(=O)[C@H]([C@@H](C)O)NC(=O)CNC(=O)[C@H](Cc2c[nH]cn2)NC(=O)[C@H](Cc2c[nH]c3ccccc23)NC(=O)[C@H](CC(N)=O)NC(=O)CNC(=O)C[C@@H](C(=O)N[C@@H](Cc2c[nH]c3ccccc23)C(=O)N[C@@H](Cc2ccccc2)C(=O)N[C@@H](Cc2ccccc2)C(=O)N[C@@H](CC(N)=O)C(=O)N[C@@H](Cc2ccc(O)cc2)C(=O)N[C@@H](Cc2ccc(O)cc2)C(=O)N[C@@H](Cc2c[nH]c3ccccc23)C(N)=O)NC(=O)[C@@H]2CCCN2C1=O [(I-3)]	–	–	49	> 490
